Laboratory results from paper PMC12998938, “Neutrophil store-operated Ca^2+ entry: A correctable biomarker of cystic fibrosis lung disease progression” (Journal of cystic fibrosis : official journal of the …, 2025).

Tests used:
SOCE, Orai1 and STIM1 = conditions: ref [49]; cited from earlier work
CF neutrophils = conditions: ex vivo treatment; ref [12]; cited from earlier work
Source text: Since SPLUNC1 is rapidly degraded ...

SOCE in CF neutrophils = conditions: in vitro CFTR potentiation; ref [12]; cited from earlier work
Source text: We have previously reported that Ca^2+ signaling is influenced by estrogen in pwCF airways. […] Circulating neutrophil levels fluctuate during the menstrual cycle and sex-specific differences in neutrophil function have previously been described. It may have been that all our female participants had low circulating estrogen levels at time of sample, or that SOCE in neutrophils is less-estrogen sensitive than SOCE in airway epithelia. Importantly, most CF participants were taking CFTR modu ...

[1] = test system: inositol monophosphatase 2 (printed IMAP2); conditions: no reference printed with the statement; cited from earlier work
Source text: Increased SOCE has previously been described in CF neutrophils and may be causal for CF neutrophil hyperactivity. However, Orai1’s involvement in SOCE in neutrophils has not been extensively studied, and the impact of CFTR modulator therapies on Orai1/SOCE is not well-understood. To globally assess the impact of ETI on CF neutrophils, we first performed a proteomic analysis. This analysis identified multiple proteins that were differentially expressed in CF-derived neutrophils relative to neutrophils from non-CF participants, even though the majority of pwCF in this part of the study ha ...

[2] = test system: Ca2+ influx in non-CF neutrophils; test: Fluo-4 Ca2+ influx across the plasma membrane, non-CF neutrophils; format: cell-based, human; conditions: thapsigargin 1 μM, regardless of genotype
Method: (§1) Isolated neutrophils were incubated with peptide or vehicle control for 3 h. For the final hour of treatment, cells were loaded with Fluo-4 direct (Thermofisher) for 45 min at 37°C and 15 min at room temperature as described.
(§2) Fig. 3. ELD607 inhibits SOCE in non-CF and CF neutrophils. (A) and (B) Mean changes in fluo-4 fluorescence as a marker of cytoplasmic Ca^2+ levels in non-CF and CF neutrophils respectively before and after stimulation with 1 μM thapsigargin (Tg). Before stimulation, neutrophils were exposed to vehicle (0.1% DMSO in PBS), 10 μM ELD607 or scrambled peptide (control) for 3 h. N = 10 non-CF and 21 CF donors. Stats show ELD607 vs vehicle or scrambled peptide based on color. (C-F) Isolation of ER Ca^2+ release vs Ca^2+ influx across the plasma membrane in non-CF and CF Neutrophils. Neutrophils were stimulated with thapsigargin (1 μM) in the absence of extracellular Ca^2+ to allow the release of Ca^2+ stores to be measured. Extracellular Ca^2+ was then returned so that extracellular Ca^2+ influx could be measured. (C) Mean fold change in Fluo-4 fluorescence during ER store release in non-CF and CF neutrophils. […] (E) Mean fold change in fluo-4 fluorescence during Ca^2+ influx in non-CF and CF neutrophils. […]
(§3) SOCE has 2 phases: release of Ca^2+ from ER stores and Ca^2+ influx from the extracellular space via Ca^2+ channels such as Orai1. […] Once the stores had emptied, extracellular Ca^2+ was reintroduced and Ca^2+ influx was measured (Fig. 3C–F).
(§4) Fluo-4 Ca^2+ assays. […] For global Ca^2+ measurements, baseline fluorescent readings were made for 2 min (1 read every 30 s) using a Tecan Infinite M1000 plate reader (ex 494 em 516 nm, bandwidth 5 nm) before thapsigargin (Sigma-Aldrich) was added and the change in emission was recorded for 10 min (1 read every 30 s). […] Baseline fluo-4 fluorescence was read for 2 min before cell were stimulated with thapsigargin (Tocris). Reads continued for ~5 min before 1.2 mM Ca^2+ was added to the extracellular solution and SOCE was measured for ~10 mins. For analysis, all fluo-4 fluorescence reads are normalized to baseline.

[3] = test system: Ca2+ influx in CF neutrophils; test: Fluo-4 Ca2+ influx across the plasma membrane, CF neutrophils; format: cell-based, human; conditions: thapsigargin 1 μM, regardless of genotype
Method: as §1, §2, §3, §4

[4] = test system: SOCE/Orai1 in non-CF peripheral blood neutrophils; test: Fluo-4 Ca2+ assay, global thapsigargin-stimulated Ca2+ response (SOCE), non-CF neutrophils; format: cell-based, human; conditions: 1 μM thapsigargin
Method: (§5) Neutrophils were immediately isolated by negative selection from deidentified blood samples using an EasySep human neutrophil isolation kit (Stem Cell Technologies) as described. Cytosolic Ca^2+ was measured using Fluo-4 as described. Protein lysate from isolated blood neutrophils was characterized by liquid chromatography with tandem mass spectrometry (LC-MS/MS) as described. Degranulation products in media were quantified by Luminex assay using a custom Bio-Plex human kit (BioRad) per the manufacturer’s protocol […]. Detailed methods for all experiments and measurements are provided in an online data supplement.
as §1
(§6) Fluo-4 Ca^2+ assays. Isolated neutrophils were incubated with peptide or vehicle control for 3 h. For the final hour of treatment, cells were loaded with Fluo-4 direct (Thermofisher) for 45 min at 37°C and 15 min at room temperature. For global Ca^2+ measurements, baseline fluorescent readings were made for 2 min (1 read every 30 s) using a Tecan Infinite M1000 plate reader (ex 494 em 516 nm, bandwidth 5 nm) before thapsigargin (Sigma-Aldrich) was added and the change in emission was recorded for 10 min (1 read every 30 s). To isolate phases of store operated Ca^2+ entry, cells underwent 3 rounds of centrifugation and resuspension in Ca^2+-free Ringer’s solution to remove extracellular Ca^2+. Baseline fluo-4 fluorescence was read for 2 min before cell were stimulated with thapsigargin (Tocris). Reads continued for ~5 min before 1.2 mM Ca^2+ was added to the extracellular solution and SOCE was measured for ~10 mins. For analysis, all fluo-4 fluorescence reads are normalized to baseline.

[5] = test system: SOCE/Orai1 in CF peripheral blood neutrophils; test: Fluo-4 Ca2+ assay, global thapsigargin-stimulated Ca2+ response (SOCE), CF neutrophils; format: cell-based, human; conditions: CF, 1 μM thapsigargin
Method: as §5, §1, §6

neutrophil elastase = conditions: neutrophil elastase; ref [20]; cited from earlier work

Molecule: NCCOB(c1ccccc1)c1ccccc1 [2-aminoethoxydiphenyl borate]
- inhibition of SOCE, Orai1 and STIM1 (SOCE, Orai1 and STIM1): broad spectrum SOCE antagonist that also inhibits Orai1 and STIM1

Molecule: CC(C)(C)c1cc(C(C)(C)C)c(NC(=O)c2c[nH]c3ccccc3c2=O)cc1O [Kalydeco]
- bacterial killing by CF neutrophils (CF neutrophils): improved
- SOCE and bacterial killing of CF neutrophils (SOCE in CF neutrophils): sufficient to normalize SOCE and CF neutrophil bacterial killing

Molecule: [Li] [lithium]
- effect of IMPA2 inhibition on inositol phosphate [1]: cellular accumulation of inositol phosphate

Molecule: C/C=C(/C)C(=O)O[C@H]1C(C)=C2[C@H]([C@@H]1OC(=O)CCCCCCC)[C@@](C)(OC(C)=O)C[C@H](OC(=O)CCC)[C@@]1(O)[C@H]2OC(=O)[C@@]1(C)O [thapsigargin]
- Ca2+ influx relative to ER Ca2+ release, non-CF [2]: ~ 10 fold
- Ca2+ influx relative to ER Ca2+ release, CF [3]: ~ 10 fold
- rate of activation (slope) of cytoplasmic Ca2+ response ([4]; vs CF p<0.001): 0.033 ± 0.012
- rate of activation (slope) of cytoplasmic Ca2+ response ([5]; Fluo-4, vs non-CF p<0.001): 0.085 ± 0.009
- increase in cytoplasmic Ca2+ vs non-CF ([5]; n = 10 non-CF, 21 CF): significantly greater increases in cytoplasmic Ca^2+ than non-CF controls

Molecule: VIRGINDMHVL [scrambled ELD607, scrambled version of ELD607 (negative control peptide)]
- inhibition of SOCE (global Ca2+ response) ([4]; 10 μM peptide, 3 h pre-treatment, N = 10 donors): no effect on SOCE in either group
- inhibition of SOCE (global Ca2+ response) ([5]; 10 μM peptide, 3 h pre-treatment, Fluo-4, N = 21 donors): no effect on SOCE in either group

B1: SPLUNC1: short palate lung and nasal epithelial clone 1, endogenous protein (protein, UniProt Q9NP55 20-256, looked up)
BPI fold-containing family A …: QFGGLPVPLDQTLPLNVNPALPLSPTGLAGSLTNALSNGLLSGGLLGILENLPLLDILKPGGGTSGGLLGGLLGKVTSVIPGLNNIIDIKVTDPQLLELGLVQSPDGHRLYVTIPLGIKLQVNTPLVGASLLRLAVKLDITAEILAVRDKQERIHLVLGDCTHSPGSLQISLLDGLGPLPIQGLLDSLTGILNKVLPELVQGNVCPLVNEVLRGLDITLVHDIVNMLIHGLQFVIKV
- degradation by neutrophil elastase (neutrophil elastase): rapidly degraded by neutrophil elastase
